From PMC8286840, “Identifying SARS-CoV-2 antiviral compounds by screening for small molecule inhibitors of Nsp3 papain-like protease” (Biochemical Journal, 2021)
Counter-ions that a name gives are not always drawn. Like-named read-outs stand apart in the source and are kept apart here.

Key:
[1] = biological target: T1, SARS-CoV-2 PLpro (nsp3 1564–1878) (Severe acute respiratory syndrome coronavirus 2, UniProt P0DTD1); assay: biochemical; design: FRET-quenched peptide (Pro3) cleavage by PLpro, 10 min pre-incubation, slope over 20 min, normalised to no-compound control; conditions: high concentration screen, read-out: % of control remaining
[2] = biological target: T1, SARS-CoV-2 PLpro (nsp3 1564–1878); assay: biochemical; design: FRET-quenched peptide (Pro3) cleavage by PLpro, 10 min pre-incubation, slope over 20 min, normalised to no-compound control; conditions: low concentration screen, read-out: % of control remaining

For `COCc1nc2c([nH]1)c(=O)n(C)c(=O)n2CC(C)C` [8-Methoxymethyl-3-isobutyl-1-methylxanthine], the remaining activity at 3.75 µM ([1]; Well no.=970) was 102% and the remaining activity at 1.25 µM ([2]; Well no.=970) was 103%.
`CCCCC/C=C/C/C=C/CCCCCCCC(=O)O` [9(E),12(E)-Octadecadienoic acid] was tested, and the remaining activity at 3.75 µM ([1]; Well no.=4356) was 104% and the remaining activity at 1.25 µM ([2]; Well no.=4356) was 105%.
In the case of `CCCCC/C=C\C=C\[C@H](CCCCCCCC(=O)O)OO` [9(S)-HPODE], the remaining activity at 3.75 µM ([1]; Well no.=4386) is reported as 98% and the remaining activity at 1.25 µM ([2]; Well no.=4386) is reported as 97.7%.
Work on `CCCCCCCC/C=C\CCCCCCCC(=O)O` [9(Z)-Octadecenoic acid] yielded a remaining activity at 3.75 µM ([1]; Well no.=4590) of 98.1% and a remaining activity at 1.25 µM ([2]; Well no.=4590) of 101%.
Work on `CCCC/C=C\CCCCCCCC(=O)O` [9(Z)-Tetradecenoic acid] yielded a remaining activity at 3.75 µM ([1]; Well no.=4268) of 98% and a remaining activity at 1.25 µM ([2]; Well no.=4268) of 102%.
With `O=C1NC(=O)c2c1c1c3ccccc3n3c1c1c2c2ccccc2n1C1CCC3O1` [9,10,11,12-Tetrahydro-9,12-epoxy-1H-diindolo[1,2,3-fg:3',2',1'-kl]pyrrolo[3,4-i][1,6]benzodiazocine-1,3(2H)-dione] the remaining activity at 3.75 µM ([1]; Well no.=2578) was 101% and the remaining activity at 1.25 µM ([2]; Well no.=2578) was 99%.
Work on `CN1C[C@H](CO)C[C@@H]2c3cccc4[nH]cc(c34)C[C@H]21` [9,10-Dihydrolysergol] yielded a remaining activity at 3.75 µM ([1]; Well no.=3468) of 109% and a remaining activity at 1.25 µM ([2]; Well no.=3468) of 108%.
Molecule `Nc1c2c(nc3ccccc13)CCCC2` [9-Amino-1,2,3,4-tetrahydroacridine hydrochloride] has a remaining activity at 3.75 µM ([1]; Well no.=157) of 102% and a remaining activity at 1.25 µM ([2]; Well no.=157) of 102%.
Work on `CC1=C(/C=C/C(C)=C\C=C\C(C)=C\C(=O)O)C(C)(C)CCC1` [9-cis Retinoic acid] yielded a remaining activity at 3.75 µM ([1]; Well no.=3136) of 95.8%, a remaining activity at 3.75 µM ([1]; Well no.=4428) of 102% and a remaining activity at 1.25 µM ([2]; Well no.=3136) of 98.3%. For the same molecule, the remaining activity at 1.25 µM ([2]; Well no.=4428) was 103%.
`c1ccc2c(Oc3nc(Nc4ccc(N5CCOCC5)cc4)c4ncn(C5CCCCC5)c4n3)cccc2c1` [9-cyclohexyl-N-[4-(4-morpholinyl)phenyl]-2-(1-naphthyloxy)-9H-purin-6-amine] gave a remaining activity at 3.75 µM ([1]; Well no.=5695) of 97.8% and a remaining activity at 1.25 µM ([2]; Well no.=5695) of 98.5%.
`Nc1ncnc2c1ncn2C1CCCC1` [9-cyclopentyladenine] was tested, and the remaining activity at 3.75 µM ([1]; Well no.=176) was 91.5% and the remaining activity at 1.25 µM ([2]; Well no.=176) was 93.3%.
Work on `CCCCC[C@@H](O)/C=C/[C@H]1[C@H](C/C=C\CCCC(=O)O)[C@@H](O)C[C@@H]1O` [9b,11a Prostaglandin F2] yielded a remaining activity at 3.75 µM ([1]; Well no.=4521) of 103% and a remaining activity at 1.25 µM ([2]; Well no.=4521) of 101%.
`CCCCCC/C=C/CCCCCCCCC(=O)O` [10(E)-Heptadecenoic acid] gave a remaining activity at 3.75 µM ([1]; Well no.=4312) of 96.7% and a remaining activity at 1.25 µM ([2]; Well no.=4312) of 104%.
In the case of `CCCCCCCC/C=C/CCCCCCCCC(=O)O` [10(E)-Nonadecenoic acid], the remaining activity at 3.75 µM ([1]; Well no.=4546) is reported as 102% and the remaining activity at 1.25 µM ([2]; Well no.=4546) is reported as 98.5%.
`CCCC/C=C/CCCCCCCCC(=O)O` [10(E)-Pentadecenoic acid] gave a remaining activity at 3.75 µM ([1]; Well no.=4300) of 89.6% and a remaining activity at 1.25 µM ([2]; Well no.=4300) of 97.7%.
Work on `CCCCC/C=C\C/C=C\CCCCCCCCC(=O)O` [10(Z),13(Z)-Nonadecadienoic acid] yielded a remaining activity at 3.75 µM ([1]; Well no.=4396) of 92.5% and a remaining activity at 1.25 µM ([2]; Well no.=4396) of 97.8%.
`CCCC/C=C\CCCCCCCCC(=O)O` [10(Z)-Pentadecenoic acid] gave a remaining activity at 3.75 µM ([1]; Well no.=4542) of 97.8% and a remaining activity at 1.25 µM ([2]; Well no.=4542) of 89.2%.
`CCN(CC)C(C)C(=O)N1c2ccccc2Sc2ccccc21` (stereo not drawn) [10-(alpha-Diethylaminopropionyl)-phenothiazine hydrochloride] was tested, and the remaining activity at 3.75 µM ([1]; Well no.=531) was 99.7% and the remaining activity at 1.25 µM ([2]; Well no.=531) was 104%.
Work on `C=CCCCCCCCCC(=O)O` [10-Undecenoic acid] yielded a remaining activity at 3.75 µM ([1]; Well no.=4254) of 91.9% and a remaining activity at 1.25 µM ([2]; Well no.=4254) of 99%.
With `CCC(Sc1nnc2c(n1)[nH]c1ccccc12)C(=O)N1c2ccccc2Sc2ccccc21` (stereo not drawn) [10-[2-(5H-[1,2,4]triazino[5,6-b]indol-3-ylsulfanyl)butanoyl]-10H-phenothiazine] the remaining activity at 3.75 µM ([1]; Well no.=5509) was 108% and the remaining activity at 1.25 µM ([2]; Well no.=5509) was 110%.
In the case of `CCN(CC)CCCCN1c2ccccc2Oc2ccc(Cl)cc21` [10-[4'-(N,N-Diethylamino)butyl]-2-chlorophenoxazine hydrochloride], the remaining activity at 3.75 µM ([1]; Well no.=2574) is reported as 101% and the remaining activity at 1.25 µM ([2]; Well no.=2574) is reported as 97.3%.
With `Cc1ccc(S(=O)(=O)N2c3ccccc3Oc3ccccc32)cc1` [10-[(4-methylphenyl)sulfonyl]-10H-phenoxazine] the remaining activity at 3.75 µM ([1]; Well no.=6041) was 96.7% and the remaining activity at 1.25 µM ([2]; Well no.=6041) was 96.2%.
`CCCCCC/C=C/CCCCCCCCCC(=O)O` [11(E)-Octadecenoic acid] was tested, and the remaining activity at 3.75 µM ([1]; Well no.=4350) was 104% and the remaining activity at 1.25 µM ([2]; Well no.=4350) was 106%.
In the case of `CCCCCCCC/C=C\CCCCCCCCCC(=O)O` [11(Z)-Eicosenoic acid], the remaining activity at 3.75 µM ([1]; Well no.=4406) is reported as 93.7% and the remaining activity at 1.25 µM ([2]; Well no.=4406) is reported as 96.4%.
`CCCCCC/C=C\CCCCCCCCCC(=O)O` [11(Z)-Octadecenoic acid] gave a remaining activity at 3.75 µM ([1]; Well no.=4348) of 94% and a remaining activity at 1.25 µM ([2]; Well no.=4348) of 102%.
With `CCCCC[C@H](O)/C=C/[C@H]1OC(=O)C[C@H](O)[C@@H]1C/C=C\CCCC(=O)O` [11-Dehydro-thromboxane B2] the remaining activity at 3.75 µM ([1]; Well no.=4288) was 99.7% and the remaining activity at 1.25 µM ([2]; Well no.=4288) was 103%.
For `C=CCCCCCCCCCC(=O)O` [11-Dodecenoic acid], the remaining activity at 3.75 µM ([1]; Well no.=4258) was 96.7% and the remaining activity at 1.25 µM ([2]; Well no.=4258) was 98.8%.
For `O=C(O)CCC/C=C\C/C=C\C=C\[C@@H](O)C/C=C\CCCCCO` [12(S),20-DIHETE], the remaining activity at 3.75 µM ([1]; Well no.=4565) was 101% and the remaining activity at 1.25 µM ([2]; Well no.=4565) was 99.6%.
Work on `CCCCC[C@H](O)/C=C/C=C/C/C=C\CCCC(=O)O` [12(S)-HHT] yielded a remaining activity at 3.75 µM ([1]; Well no.=4234) of 103% and a remaining activity at 1.25 µM ([2]; Well no.=4234) of 101%.
`CCCCC/C=C\C[C@@H](/C=C/C=C\C/C=C\CCCC(=O)O)OO` [12(S)-HPETE] gave a remaining activity at 3.75 µM ([1]; Well no.=4329) of 103% and a remaining activity at 1.25 µM ([2]; Well no.=4329) of 110%.
`CCCCCCCC/C=C\CCCCCCCCCCC(=O)O` [12(Z) Heneicosenoic acid] showed a remaining activity at 3.75 µM ([1]; Well no.=4452) of 102% and a remaining activity at 1.25 µM ([2]; Well no.=4452) of 94%.
For `CCCCC/C=C\C/C=C\CCCCCCCCCCC(=O)O` [12(Z), 15(Z)-Heneicosadienoic acid], the remaining activity at 3.75 µM ([1]; Well no.=4454) was 89.9% and the remaining activity at 1.25 µM ([2]; Well no.=4454) was 95.1%.
For `CC(=O)OCC1=C[C@H]2[C@@H]3C(C)(C)[C@]3(OC(=O)Cc3ccccc3)C[C@@H](C)[C@]2(O)[C@@H]2C=C(C)C(=O)[C@@]2(O)C1` [12-Deoxyphorbol 13-phenylacetate 20-acetate], the remaining activity at 3.75 µM ([1]; Well no.=3229) was 105% and the remaining activity at 1.25 µM ([2]; Well no.=3229) was 107%.
Molecule `COCCCCCCCCCCCC(=O)O` [12-Methoxydodecanoic acid] has a remaining activity at 3.75 µM ([1]; Well no.=4262) of 94.8%, a remaining activity at 3.75 µM ([1]; Well no.=4359) of 97.3% and a remaining activity at 1.25 µM ([2]; Well no.=4262) of 96%. It also gave a remaining activity at 1.25 µM ([2]; Well no.=4359) of 101%.
